Where two headings read alike, the source gives them in different places.
Columns and labels:
[1] = test system: KG-1 cells (FGFR1-fusion); experiment: KG-1 cancer cell line cell viability assay (CellTiter-Glo 2.0); format: cell-based; conditions: Homo sapiens, 72 hours, Cell Titer Glo 2.0
How it was run: (§1)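 RT112/84, UM-UC-14 and KG-1 cells (10,000/well, RPMI1640 with 10% FBS) were treated with a 9-dose, 10-fold series starting at 30 μM, in triplicate, for 72 h at 37 °C. ATP was read by CellTiter-Glo 2.0 luminescence relative to DMSO controls, and IC50 was fitted with a 4-parameter sigmoidal model.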

[2] = target: FGFR1-BCR Ba/F3 cells (Homo sapiens, UniProt P11362); experiment: Ba/F3 cell viability assay (CellTiter-Glo 2.0), FGFR1-BCR Ba/F3; format: cell-based
Sequence of FGFR1-BCR Ba/F3 cells (P11362 22-822 limits assumed, change not shown): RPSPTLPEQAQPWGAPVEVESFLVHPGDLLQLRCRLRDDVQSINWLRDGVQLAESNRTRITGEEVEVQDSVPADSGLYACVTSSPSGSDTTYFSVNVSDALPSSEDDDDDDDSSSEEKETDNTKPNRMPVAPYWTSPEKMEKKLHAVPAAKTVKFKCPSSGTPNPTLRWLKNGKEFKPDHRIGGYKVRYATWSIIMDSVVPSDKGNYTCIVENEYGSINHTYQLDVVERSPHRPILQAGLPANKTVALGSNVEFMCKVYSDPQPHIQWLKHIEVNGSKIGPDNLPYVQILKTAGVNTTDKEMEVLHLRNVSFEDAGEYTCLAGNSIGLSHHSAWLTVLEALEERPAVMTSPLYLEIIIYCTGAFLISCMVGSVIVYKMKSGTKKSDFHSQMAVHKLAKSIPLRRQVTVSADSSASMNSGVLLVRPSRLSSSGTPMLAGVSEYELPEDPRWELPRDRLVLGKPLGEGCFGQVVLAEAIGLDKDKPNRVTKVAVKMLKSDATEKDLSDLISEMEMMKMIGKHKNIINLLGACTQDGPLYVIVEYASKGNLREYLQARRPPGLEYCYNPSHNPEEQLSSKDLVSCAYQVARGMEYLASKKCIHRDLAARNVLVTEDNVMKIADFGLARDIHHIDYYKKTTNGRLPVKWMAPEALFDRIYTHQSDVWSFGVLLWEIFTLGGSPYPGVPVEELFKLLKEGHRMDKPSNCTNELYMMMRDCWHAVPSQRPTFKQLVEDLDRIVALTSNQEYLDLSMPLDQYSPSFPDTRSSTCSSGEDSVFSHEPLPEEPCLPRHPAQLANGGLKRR
How it was run: (§2)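 IL3-independent Ba/F3 lines driven by FGFR1-BCR or FGFR3-BAIAP2L1 fusions, in RPMI1640/10% FBS. 9-dose 10-fold series from 30 μM, triplicate, 48 h at 37 °C; viability by CellTiter-Glo 2.0 ATP luminescence relative to DMSO control, IC50 from 4-parameter sigmoidal fit.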

[3] = target: FGFR3-BAIAP2L1 Ba/F3 cells (Homo sapiens, UniProt P22607); experiment: Ba/F3 cell viability assay (CellTiter-Glo 2.0), FGFR3-BAIAP2L1 Ba/F3; format: cell-based
Sequence of FGFR3-BAIAP2L1 Ba/F3 cells (P22607 23-806 limits assumed, change not shown): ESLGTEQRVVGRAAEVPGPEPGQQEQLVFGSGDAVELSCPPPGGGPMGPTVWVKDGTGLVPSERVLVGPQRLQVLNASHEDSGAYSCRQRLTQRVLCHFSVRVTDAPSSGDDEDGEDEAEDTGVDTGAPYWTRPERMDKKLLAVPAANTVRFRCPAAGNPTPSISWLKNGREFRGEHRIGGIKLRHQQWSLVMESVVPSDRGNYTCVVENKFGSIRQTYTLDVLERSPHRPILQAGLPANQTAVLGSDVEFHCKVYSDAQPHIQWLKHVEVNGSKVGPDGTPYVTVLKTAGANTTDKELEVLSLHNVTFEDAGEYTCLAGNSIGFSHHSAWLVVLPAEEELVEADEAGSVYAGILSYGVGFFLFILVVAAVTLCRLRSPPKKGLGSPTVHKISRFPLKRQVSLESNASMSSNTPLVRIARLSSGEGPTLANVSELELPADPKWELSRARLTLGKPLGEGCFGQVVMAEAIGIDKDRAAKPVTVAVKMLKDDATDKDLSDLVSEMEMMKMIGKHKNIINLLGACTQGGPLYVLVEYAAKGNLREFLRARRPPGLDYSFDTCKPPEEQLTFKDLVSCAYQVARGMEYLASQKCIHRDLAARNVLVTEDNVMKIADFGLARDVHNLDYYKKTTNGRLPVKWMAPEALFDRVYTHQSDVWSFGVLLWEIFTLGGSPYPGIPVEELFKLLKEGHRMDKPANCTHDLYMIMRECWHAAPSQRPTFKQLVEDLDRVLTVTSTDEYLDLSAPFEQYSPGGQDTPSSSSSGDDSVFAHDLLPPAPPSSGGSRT
How it was run: as §2

[4] = test system: RT112/84 cells (FGFR3-fusion); experiment: RT112/84 cancer cell line cell viability assay (CellTiter-Glo 2.0); format: cell-based; conditions: Homo sapiens, 72 hours, Cell Titer Glo 2.0
How it was run: as §1

[5] = test system: UM-UC-14 cells (FGFR3(S249C)); experiment: UM-UC-14 cancer cell line cell viability assay (CellTiter-Glo 2.0); format: cell-based; conditions: UMUC14, 72 hours, Cell Titer Glo 2.0
Description: Experimental Purpose: To detect the change of intracellular ATP by Cell Titer-Glo® and to evaluate the inhibitory effect of the compounds on cancer cell lines by determining the in vitro IC50 value of the compounds.
Cell Titer-Glo® 2.0 Luminescent cell viability assay reagent was purchased from Promega (Madison, WI). RT112/84 and KG-1 cell lines were purchased from American Type Culture Collection (Manassas, VA). UM-UC-14 cell line was purchased from Sigma (St. Louis, MO). RT112/84, UM-UC-14, and KG-1 cells were cultured in RPMI1640 media supplemented with 10% fetal bovine serum. Cultures were maintained at 37° C. in a humidified atmosphere of 5% C02 and 95% air.
Cell Viability Assay Procedure: Cells were plated in 96-well clear bottom/white plates (Corning #3903) at 10,000 cells/well in 100 μl of media, incubated overnight. The next day, test compound DMSO stock solutions were made at 10 mM and 2 μM final concentration. Compounds were then added to cells in a 9-dose, 10-fold dilution series starting at 30 μM with an HP 300e Digital Dispenser (each dose was applied in triplicate). DMSO was backfilled to each well up to 301 nL total volume of test compound+DMSO, and a total of 301 nL DMSO was added to a control/no test compound well in triplicate. The cells in cell culture plates were incubated with the compounds at 37° C. and 5% C02 for 72 hours. Then 50 μl of Cell Titer Glo 2.0 reagent was added to each well of the cell culture plates. The contents were covered from light and mixed on an orbital shaker at room temperature for 10 min. Luminescence was recorded by a Synergy H1 Microplate Reader (Biotek, Winooski, VT). Cells were assessed as a percentage of DMSO only treated control cells. Curves were plotted and IC50 values were calculated using the GraphPad Prism 8 program based on a sigmoidal dose-response equation (4 parameter).

[6] = target: FGFR3 (Homo sapiens (Human), UniProt P22607); experiment: Kinase assay, binding constants (Kd), kinase-tagged T7 phage, qPCR
Sequence of FGFR3 (P22607 23-806): as the sequence (P22607 23-806 limits assumed, change not shown) above
How it was run: (§3)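 Competition binding: kinase-tagged T7 phage lysates mixed with immobilized biotinylated ligand on streptavidin beads plus compound (11-point 3-fold dilution series, 0.9% DMSO final). Bound kinase eluted with free ligand and quantified by qPCR. Kd from Hill equation fit, slope fixed at −1.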

[7] = target: FGFR3 (V555M) (Homo sapiens (Human), UniProt P22607, V555M); experiment: as above; conditions: V555M mutant
Sequence of FGFR3 (V555M) (P22607 23-806 V555M): as the sequence (P22607 23-806 limits assumed, change not shown) above, with V533M counted along it
How it was run: as §3

[8] = target: FGFR2 (Homo sapiens (Human), UniProt P21802); experiment: as above
Sequence of FGFR2 (P21802 22-821): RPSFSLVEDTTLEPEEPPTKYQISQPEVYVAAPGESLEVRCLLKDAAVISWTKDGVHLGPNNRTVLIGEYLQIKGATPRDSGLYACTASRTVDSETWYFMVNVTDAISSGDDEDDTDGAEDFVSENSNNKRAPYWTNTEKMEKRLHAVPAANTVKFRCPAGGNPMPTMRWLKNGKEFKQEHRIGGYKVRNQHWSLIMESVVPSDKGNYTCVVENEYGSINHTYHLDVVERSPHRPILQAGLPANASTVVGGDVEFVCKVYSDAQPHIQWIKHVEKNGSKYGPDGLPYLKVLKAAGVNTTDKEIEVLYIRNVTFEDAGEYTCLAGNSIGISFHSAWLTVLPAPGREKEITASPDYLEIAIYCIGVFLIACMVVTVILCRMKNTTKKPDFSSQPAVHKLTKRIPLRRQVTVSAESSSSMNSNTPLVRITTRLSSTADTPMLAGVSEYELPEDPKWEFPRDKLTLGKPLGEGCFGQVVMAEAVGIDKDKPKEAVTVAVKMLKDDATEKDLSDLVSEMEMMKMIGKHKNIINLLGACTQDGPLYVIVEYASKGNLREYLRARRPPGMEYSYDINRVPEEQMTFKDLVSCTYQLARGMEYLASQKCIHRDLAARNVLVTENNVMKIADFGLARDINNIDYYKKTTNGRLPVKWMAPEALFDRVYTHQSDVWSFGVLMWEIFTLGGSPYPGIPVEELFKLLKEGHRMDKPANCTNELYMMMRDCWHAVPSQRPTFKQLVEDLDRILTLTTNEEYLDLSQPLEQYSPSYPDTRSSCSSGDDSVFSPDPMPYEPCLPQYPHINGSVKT
How it was run: as §3

[9] = target: FGFR1 (Homo sapiens (Human), UniProt P11362); experiment: as above
Sequence of FGFR1 (P11362 22-822): as the sequence (P11362 22-822 limits assumed, change not shown) above
How it was run: as §3

[10] = target: FGFR4 (Homo sapiens (Human), UniProt P22455); experiment: as above
Sequence of FGFR4 (P22455 22-802): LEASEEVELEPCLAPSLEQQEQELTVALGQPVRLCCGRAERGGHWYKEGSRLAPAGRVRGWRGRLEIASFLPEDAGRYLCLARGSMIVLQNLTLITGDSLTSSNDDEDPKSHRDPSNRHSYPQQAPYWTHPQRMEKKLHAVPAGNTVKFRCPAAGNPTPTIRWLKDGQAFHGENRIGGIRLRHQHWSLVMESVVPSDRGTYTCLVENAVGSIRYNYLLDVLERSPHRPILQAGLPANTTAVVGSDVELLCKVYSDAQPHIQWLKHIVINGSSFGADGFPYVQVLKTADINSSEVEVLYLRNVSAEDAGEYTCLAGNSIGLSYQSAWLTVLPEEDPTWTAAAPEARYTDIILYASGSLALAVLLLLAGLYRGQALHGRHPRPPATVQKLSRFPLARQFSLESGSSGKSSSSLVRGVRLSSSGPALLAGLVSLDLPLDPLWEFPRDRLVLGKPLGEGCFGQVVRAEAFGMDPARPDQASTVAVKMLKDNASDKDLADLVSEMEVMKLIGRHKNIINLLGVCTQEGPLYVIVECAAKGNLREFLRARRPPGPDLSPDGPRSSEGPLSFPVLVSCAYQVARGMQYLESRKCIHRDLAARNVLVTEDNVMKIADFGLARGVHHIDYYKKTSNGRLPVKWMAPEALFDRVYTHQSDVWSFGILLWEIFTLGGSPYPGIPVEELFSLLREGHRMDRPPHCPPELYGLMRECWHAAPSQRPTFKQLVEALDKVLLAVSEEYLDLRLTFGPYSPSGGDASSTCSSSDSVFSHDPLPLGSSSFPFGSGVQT
How it was run: as §3

[11] = read-out: Ba/F3 Cells FGFR1 (IC50 nM), 48 hours, Cell Titer Glo 2.0
[12] = FGFR3 > FGFR1 selectivity ratio in Ba/F3 FGFR fusion cell based assays
[13] = read-out: Ba/F3 Cells FGFR3 (IC50 nM); FGFR3-BAIAP2L1 Ba/F3 cells, 48 hours, Cell Titer Glo 2.0

Row | SMILES | IC50 [1] [nM] | IC50 [2, 11] [nM] | Ba/F3 FGFR1/FGFR3 Selectivity [3, 12] | IC50 [3, 13] [nM] | IC50 [4] [nM] | IC50 [5] [nM] | Kd [6] [nM] | Kd [7] [nM] | Kd [8] [nM] | Kd [9] [nM] | Kd [10] [nM] | IC50 ([2]; 48 hours, Cell Titer Glo 2.0, read-out: Ba/F3 Cells FGFR1 (IC50 nM)) [nM] | IC50 ([3]; FGFR3-BAIAP2L1 Ba/F3 cells, 48 hours, Cell Titer Glo 2.0; read-out: Ba/F3 Cells FGFR3 (IC50 nM)) [nM]
1 | C[C@@H](Oc1ccc2[nH]nc(-c3cnc(N4CCN(C(=O)N(C)C)CC4)nc3)c2c1)c1c(Cl)cncc1Cl [Example 19, 4-[5-[5-[(1R)-1-(3,5-Dichloro-4-pyridyl)ethoxy]-1H-indazol-3-yl]pyrimidin-2-yl]-N,N-dimethyl-piperazine-1-carboxamide] | 100 to 300 | 100 to 300 | 15 | 1 to 20 | 1 to 20 | 1 to 20 | 1 to 20 | 1 to 20 | 100 to 300 | 1 to 20 | 1 to 20 | – | –
2 | C[C@@H](Oc1ccc2[nH]nc(-c3ccc(N4CC5CC(C4)N5)nc3)c2c1)c1c(Cl)cncc1Cl [Example 16, 3-[6-(3,6-Diazabicyclo[3.1.1]heptan-3-yl)-3-pyridyl]-5-[(1R)-1-(3,5-dichloro-4-pyridyl)ethoxy]-1H-indazole] | 20 to 100 | – | 14 | – | 1 to 20 | 1 to 20 | 1 to 20 | 1 to 20 | 1 to 20 | 1 to 20 | 1 to 20 | > 300 | 20 to 100
3 | C[C@@H](Oc1ccc2[nH]nc(-c3ccc(N4CC5(CCCS(=O)(=O)C5)C4)nc3)c2c1)c1c(Cl)cncc1Cl [Example 159, 2-[5-[5-[(1R)-1-(3,5-dichloro-4-pyridyl)ethoxy]-1H-indazol-3-yl]-2-pyridyl]-6λ^6-thia-2-azaspiro[3.5]nonane 6,6-dioxide] | 1 to 20 | 20 to 100 | 16 | 1 to 20 | 1 to 20 | 20 to 100 | 1 to 20 | 1 to 20 | 1 to 20 | 1 to 20 | 1 to 20 | – | –
4 | C[C@@H](Oc1ccc2[nH]nc(-c3ccc(N4CCN(C(N)=O)C5(CC5)C4)nc3)c2c1)c1c(Cl)cncc1Cl [Example 24, 7-[5-[5-[(1R)-1-(3,5-dichloro-4-pyridyl)ethoxy]-1H-indazol-3-yl]-2-pyridyl]-4,7-diazaspiro[2.5]octane-4-carboxamide] | 20 to 100 | 20 to 100 | 18 | 1 to 20 | 1 to 20 | 1 to 20 | 1 to 20 | 1 to 20 | 1 to 20 | 1 to 20 | 1 to 20 | – | –
5 | C[C@@H](Oc1ccc2[nH]nc(-c3ccc(N4CCC5(CC4)C(=O)NCCN5C)nc3)c2c1)c1c(Cl)cncc1Cl [Example 34, 9-[5-[5-[(1R)-1-(3,5-dichloro-4-pyridyl)ethoxy]-1H-indazol-3-yl]-2-pyridyl]-1-methyl-1,4,9-triazaspiro[5.5]undecan-5-one] | 20 to 100 | 20 to 100 | 28 | 1 to 20 | 1 to 20 | 1 to 20 | 1 to 20 | 1 to 20 | 1 to 20 | 1 to 20 | 1 to 20 | – | –
6 | C[C@@H](Oc1ccc2[nH]nc(-c3ccc(N4CCN(C(N)=O)CC4)nc3)c2c1)c1c(Cl)cncc1Cl [Example 12, 4-[5-[5-[(1R)-1-(3,5-dichloro-4-pyridyl)ethoxy]-1H-indazol-3-yl]-2-pyridyl]piperazine-1-carboxamide] | 20 to 100 | 100 to 300 | 19 | 1 to 20 | 1 to 20 | 1 to 20 | 1 to 20 | 1 to 20 | 1 to 20 | 1 to 20 | 1 to 20 | – | –
7 | C[C@@H](Oc1ccc2[nH]nc(-c3cnc(N4CCC5(CCC(=O)N5C)CC4)nc3)c2c1)c1c(Cl)cncc1Cl [Example 54, 8-[5-[5-[(1R)-1-(3,5-dichloro-4-pyridyl)ethoxy]-1H-indazol-3-yl]pyrimidin-2-yl]-1-methyl-1,8-diazaspiro[4.5]decan-2-one] | 100 to 300 | 100 to 300 | 13 | 1 to 20 | 1 to 20 | 1 to 20 | 1 to 20 | 1 to 20 | 1 to 20 | 1 to 20 | 1 to 20 | – | –
8 | C[C@@H](Oc1ccc2[nH]nc(-c3ccc(N4CCNC5(CC5)C4)nc3)c2c1)c1c(Cl)cncc1Cl [Example 21, 3-[6-(4,7-diazaspiro[2.5]octan-7-yl)-3-pyridyl]-5-[(1R)-1-(3,5-dichloro-4-pyridyl)ethoxy]-1H-indazole] | 20 to 100 | 100 to 300 | 13 | 1 to 20 | 1 to 20 | 1 to 20 | 1 to 20 | 1 to 20 | 1 to 20 | 1 to 20 | 1 to 20 | – | –
9 | C[C@@H](Oc1ccc2[nH]nc(-c3cnc(N4CCN(C(=O)N5CCN(C)CC5)CC4)c(F)c3)c2c1)c1c(Cl)cncc1Cl [Example 13, [4-[5-[5-[(1R)-1-(3,5-Dichloro-4-pyridyl)ethoxy]-1H-indazol-3-yl]-3-fluoro-2-pyridyl]piperazin-1-yl]-(4-methylpiperazin-1-yl)methanone] | 20 to 100 | 100 to 300 | 11 | 20 to 100 | 1 to 20 | 20 to 100 | 1 to 20 | 1 to 20 | 1 to 20 | 1 to 20 | 1 to 20 | – | –
10 | C[C@@H](Oc1ccc2[nH]nc(-c3ccc(N4CCC5(CCCN5C)CC4)nc3)c2c1)c1c(Cl)cncc1Cl [Example 33, 8-[5-[5-[(1R)-1-(3,5-dichloro-4-pyridyl)ethoxy]-1H-indazol-3-yl]-2-pyridyl]-1-methyl-1,8-diazaspiro[4.5]decane] | 20 to 100 | 20 to 100 | 16 | 1 to 20 | 1 to 20 | 1 to 20 | 1 to 20 | 1 to 20 | 1 to 20 | 1 to 20 | 1 to 20 | – | –
11 | C[C@@H](Oc1ccc2[nH]nc(-c3ccc(N4CCN(S(C)(=O)=O)C5(CC5)C4)nc3)c2c1)c1c(Cl)cncc1Cl [Example 22, 5-[(1R)-1-(3,5-dichloro-4-pyridyl)ethoxy]-3-[6-(4-methylsulfonyl-4,7-diazaspiro[2.5]octan-7-yl)-3-pyridyl]-1H-indazole] | 20 to 100 | 100 to 300 | 11 | 1 to 20 | 1 to 20 | 1 to 20 | 1 to 20 | 1 to 20 | 20 to 100 | 20 to 100 | 1 to 20 | – | –
12 | C[C@@H](Oc1ccc2[nH]nc(-c3ccc(N4CCC5(CCOC5)CC4)nc3)c2c1)c1c(Cl)cncc1Cl [Example 28, 8-[5-[5-[(1R)-1-(3,5-dichloro-4-pyridyl)ethoxy]-1H-indazol-3-yl]-2-pyridyl]-2-oxa-8-azaspiro[4.5]decane] | 100 to 300 | > 300 | 22 | 1 to 20 | 1 to 20 | 1 to 20 | 1 to 20 | 1 to 20 | 20 to 100 | 20 to 100 | 1 to 20 | – | –

Reference: patent publication US20240109865A1, “INDAZOLE COMPOUNDS AS KINASE INHIBITORS” (TYRA BIOSCIENCES, INC., priority 2020, published 2024)
